According to patent publication US11958842B2, “Substituted phenazines and methods of treating cancer and bacterial diseases” (Adjutec Pharma AS, priority 2016, dated 2024):
Where two headings read alike, the source gives them in different places.

Experiments:
Test in all cases: Cytotoxicity, WST-1 and nuclear morphology (Example 73)
Format in all cases: cell-based
[1] = system: human acute myeloid leukemia cell line MOLM-13; conditions: Homo sapiens
How it was run: (§1)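 MOLM-13 (RPMI/FBS), NRK and H9c2 (DMEM/10% FBS) cells under 2% or 20% O2 at 37° C were exposed to analogues for 24 h (≤1% DMSO). Viability was read by WST-1, and cell death by Hoechst 33342 nuclear morphology; EC50 came from four-parameter regression.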

[2] = system: normal rat kidney epithelial (NRK) cells; conditions: Rattus norvegicus
How it was run: as §1

[3] = system: rat cardiomyoblast (H9c2) cells; conditions: Rattus norvegicus; H9c2, 19% O2, 24 hours of incubation; read-out: EC50 (μM) H9c2 19% O2
How it was run: as §1

COc1cccc2c1[n+]([O-])c1cccc(O)c1[n+]2O [Example 5a, 1-hydroxy-6-methoxyphenazine 5.10-dioxide, reference compound]
EC50 ([1]; MOLM-13, 2% O2, 24 hours of incubation, read-out: EC50 (μM) MOLM-13 2% O2): 0.77 ± 0.13 µM | EC50 ([1]; MOLM-13, 19% O2, 24 hours of incubation, read-out: EC50 (μM) MOLM-13 19% O2): 1.4 ± 0.3 µM | EC50 ([2]; 2% O2, 24 hours of incubation, read-out: EC50 (μM) NRK 2% O2): 76 ± 14 µM | EC50 ([2]; 19% O2, 24 hours of incubation, read-out: EC50 (μM) NRK 19% O2): 77 ± 11 µM | EC50 [3]: 46 ± 4.1 µM
